Test results published in patent US11628181B2, “N4-hydroxycytidine and derivatives and anti-viral uses related thereto” (Emory University, priority 2014, dated 2023).
Where two headings read alike, the source gives them in different places.

Tests used:
CHIKV = assay: microbe, parasite or virus in culture; details: Chikungunya virus
in vitro [1] = assay: in vitro
Vero = assay: Cell viability, Vero (MERV screen); assay type: cell-based
MERV = MERV (MOI 0.4) viral inhibition in Vero; assay type: cell-based; details: MERV MOI 0.4, Vero
U2OS cell line = assay: Cell viability, U2OS cell line (Chikungunya screen)
Chikungunya virus = Chikungunya virus (MOI 0.5) viral inhibition in U2OS cell line; assay type: cell-based; details: for inhibition at 10 µM: read-out: Viral Inh. 10 uM; for inhibition at 50 µM: read-out: Viral Inh. 50 uM
VEEV [2] = assay: microbe, parasite or virus in culture; assay type: cell-based; details: Venezuelan equine encephalitis virus, Astrocyte; for inhibition at 10 µM: read-out: Viral Inh. 10 uM; for inhibition at 50 µM: read-out: Viral Inh. 50 uM
in vitro [3] = details: African green monkey
SARS Coronavirus Urbani = assay: microbe, parasite or virus in culture; assay type: cell-based; details: Severe acute respiratory syndrome-related coronavirus, Vero 76
HeLa = details: human
VEEV [4] = assay: microbe, parasite or virus in culture; assay type: cell-based; details: Venezuelan equine encephalitis virus, HeLa; for inhibition at 10 µM: read-out: Viral Inh. 10 uM; for inhibition at 50 µM: read-out: Viral Inh. 50 uM

Work on `O=c1ccn([C@@H]2O[C@H](CO)C(O)[C@]23CC3(F)F)c(=O)[nH]1` (stereo partly shown) [EIDD-02339-01] yielded an EC50 (CHIKV) greater than 78 µM and a CC50 (in vitro [1]) greater than 500 µM.
For `CCCCCCCNC(=O)ONc1ccn([C@@H]2O[C@H](CO)C(O)C2O)c(=O)n1` (stereo partly shown) [drawing 92], the “Cell Viability 10 uM” value (Vero; 10 uM) was 118% ± 15% (n = 4), the “Cell Viability 50 uM” value (Vero; 50 uM) was 91% ± 39% (n = 4) and the inhibition at 10 µM (MERV; 10 uM, read-out: Viral Inh. 10 uM) was 86%. It also gave an inhibition at 50 µM (MERV; 50 uM, read-out: Viral Inh. 50 uM) of 98%.
`CN(C)C(=O)ONc1ccn([C@@H]2O[C@H](CO)[C@H](O)C2O)c(=O)n1` (stereo partly shown) [EIDD-02423-01] gave an EC50 (CHIKV) of 25 µM and a CC50 (in vitro [1]) greater than 500 µM.
In the case of `CC(C)OC(=O)[C@H](C)NP(=O)(OC[C@H]1O[C@@H](n2ccc(NO)nc2=O)C(O)C1O)Oc1ccccc1` (stereo partly shown) [drawing 75], the “Cell Viability 10 uM” value (U2OS cell line) is reported as 99% ± 6% (n = 4), the “Cell Viability 50 uM” value (U2OS cell line) is reported as 99% ± 8% (n = 4) and the inhibition at 10 µM (Chikungunya virus) is reported as 3%. The inhibition at 50 µM (Chikungunya virus) was 36%.
`CC1(F)[C@@H](O)[C@@H](CO)O[C@H]1n1ccc(NO)nc1=O` (stereo partly shown) [EIDD-02080-01] showed an EC50 (CHIKV) greater than 75 µM and a CC50 (in vitro [1]) greater than 500 µM.
Work on `[2H]C([2H])(O)[C@H]1O[C@@H](n2ccc(NO)nc2=O)[C@@H](O)C1O` (stereo partly shown) [EIDD-02345-01] yielded an EC50 (CHIKV) of 1.5 µM and a CC50 (in vitro [1]) greater than 500 µM.
With `CC(C)(C)C(=O)OCOP(=O)(OCOC(=O)C(C)(C)C)OC[C@@]1(N=[N+]=[N-])O[C@@H](n2ccc(=O)[nH]c2=O)[C@@H](O)C1O` (stereo partly shown) [EIDD-02110-03] the EC50 (CHIKV) was 56 µM and the CC50 (in vitro [1]) was 387 µM.
In the case of `O=c1nc(NO)ccn1[C@@H]1O[C@H](CO)C(O)C1O` (stereo partly shown) [drawing 73], the “Cell Viability 10 uM” value (U2OS cell line) is reported as 97% ± 5% (n = 4), the “Cell Viability 50 uM” value (U2OS cell line) is reported as 79% ± 10% (n = 4) and the inhibition at 10 µM (Chikungunya virus) is reported as 80%. It also gave an inhibition at 50 µM (Chikungunya virus) of 100%.
In the case of `O=c1nc(NO)ccn1[C@@H]1O[C@H](CO)C(O)C1O` (stereo partly shown) [drawing 83], the inhibition at 10 µM (VEEV [2]) is reported as 99%, the inhibition at 50 µM (VEEV [2]) is reported as 100% and the “Cell Viability 10 uM” value (Astrocytes) is reported as 98% ± 12% (n = 3). The “Cell Viability 50 uM” value (Astrocytes) was 86% ± 5% (n = 3).
`CCCCCCCCCCCCCCCCCCNC(=O)ONc1ccn([C@@H]2O[C@H](CO)[C@H](O)C2O)c(=O)n1` (stereo partly shown) [EIDD-02357-01] gave an EC50 (CHIKV) greater than 78 µM and a CC50 (in vitro [1]) of 90 µM.
For `CCCCCCCNC(=O)ONc1ccn([C@@H]2O[C@H](CO)C(O)C2O)c(=O)n1` (stereo partly shown) [drawing 87], the inhibition at 10 µM (VEEV [2]) was 51%, the inhibition at 50 µM (VEEV [2]) was 37% and the “Cell Viability 10 uM” value (Astrocytes) was 98% ± 12% (n = 3). For the same compound, the “Cell Viability 50 uM” value (Astrocytes) was 85% ± 19% (n = 3).
`CCCCCCCNC(=O)OC[C@H]1O[C@@H](n2ccc(NO)nc2=O)C(O)[C@H]1O` (stereo partly shown) [EIDD-02475-01] showed an EC50 (CHIKV) greater than 78 µM and a CC50 (in vitro [1]) greater than 500 µM.
`CONc1ccn([C@@H]2O[C@H](CO)C(O)C2O)c(=O)n1` (stereo partly shown) gave a CC50 (in vitro [3]) greater than 100 mg/L and an EC50 (SARS Coronavirus Urbani) greater than 100 mg/L.
In the case of `CCCCCCCCCCCCCCCCNC(=O)ONc1ccn([C@@H]2O[C@H](CO)[C@H](O)C2O)c(=O)n1` (stereo partly shown) [EIDD-02356-01], the EC50 (CHIKV) is reported as greater than 78 µM and the CC50 (in vitro [1]) is reported as 211 µM.
In the case of `O=c1nc(NO)ccn1[C@@H]1O[C@H](CO)C(O)C1O` (stereo partly shown) [drawing 78], the “Cell Viability 10 uM” value (HeLa) is reported as 116% ± 24% (n = 4), the “Cell Viability 50 uM” value (HeLa) is reported as 61% ± 8% (n = 4) and the EC50 (VEEV [4]) is reported as 1.24 µM. For the same compound, the inhibition at 10 µM (VEEV [4]) was 100% and the inhibition at 50 µM (VEEV [4]) was 100%.
With `C#C[C@@]1(O)C(O)[C@@H](COP(=O)(OCOC(=O)C(C)(C)C)OCOC(=O)C(C)(C)C)O[C@H]1n1ccc(=O)[nH]c1=O` (stereo partly shown) [EIDD-02290-01] the EC50 (CHIKV) was 64.4 µM and the CC50 (in vitro [1]) was 274 µM.
Compound `CCOP(=O)(OCC)OC[C@H]1O[C@@H](n2ccc(NO)nc2=O)[C@@H](O)C1O` (stereo partly shown) [EIDD-02503-01] has an EC50 (CHIKV) greater than 78 µM and a CC50 (in vitro [1]) greater than 500 µM.
For `O=c1nc(NO)c(F)cn1[C@@H]1O[C@H](CO)C(O)C1O` (stereo partly shown) [drawing 81], the “Cell Viability 10 uM” value (HeLa) was 55% ± 4% (n = 4), the “Cell Viability 50 uM” value (HeLa) was 36% ± 2% (n = 4) and the inhibition at 10 µM (VEEV [4]) was 61%. For the same compound, the inhibition at 50 µM (VEEV [4]) was 98%.
With `CCCCCCCNC(=O)ONc1ccn([C@@H]2O[C@H](CO)C(O)C2O)c(=O)n1` (stereo partly shown) [drawing 82] the “Cell Viability 10 uM” value (HeLa) was 151% ± 16% (n = 4), the “Cell Viability 50 uM” value (HeLa) was 126% ± 7% (n = 4) and the EC50 (VEEV [4]) was 6 µM. For the same compound, the inhibition at 10 µM (VEEV [4]) was 93% and the inhibition at 50 µM (VEEV [4]) was 100%.
Compound `C[C@@]1(O)C2OP(=O)(Oc3ccccc3)OC[C@H]2O[C@H]1n1ccc(=O)[nH]c1=O` (stereo partly shown) [EIDD-01872-01] has an EC50 (CHIKV) greater than 78 µM and a CC50 (in vitro [1]) greater than 500 µM.
With `O=c1nc(NO)ccn1[C@@H]1O[C@H](CO)C(O)[C@@H]1O` (stereo partly shown) [EIDD-02200-01] the EC50 (CHIKV) was greater than 78 µM and the CC50 (in vitro [1]) was greater than 500 µM.
In the case of `CCCCCCCCCCCCCCCCOCCCOP(=O)(O)OC[C@H]1O[C@@H](n2ccc(NO)nc2=O)[C@@H](O)C1O` (stereo partly shown) [EIDD-02108-03], the EC50 (CHIKV) is reported as 34.5 µM and the CC50 (in vitro [1]) is reported as 98 µM.
`O=c1nc(NO)ccn1[C@@H]1O[C@H](COP2(=O)OCc3ccccc3O2)C(O)[C@@H]1O` (stereo partly shown) [EIDD-02207-01] gave an EC50 (CHIKV) of 10.8 µM and a CC50 (in vitro [1]) greater than 500 µM.
